Test results as given in ChEMBL document CHEMBL1126337, “Cholecystokinin analogues: The ergopeptine alkaloids as models of the active conformation of CCK” (Bioorg Med Chem Lett, 1992).
Peptide text beside a SMILES is read from it. * marks the point of attachment. NHPhenethyl = c1ccc(CCN*)cc1; Boc = CC(C)(C)OC(=O)*

Columns and labels:
[1] = target: T1, Gastrin/cholecystokinin type B receptor (Mus musculus, UniProt P56481); experiment: Concentration of compound required to inhibit binding of [125I]J-BH-CCK-8 radioligand to CCKB in mouse fore brain membranes; type: cell membranes, Membrane
T1 sequence (P56481 whole entry): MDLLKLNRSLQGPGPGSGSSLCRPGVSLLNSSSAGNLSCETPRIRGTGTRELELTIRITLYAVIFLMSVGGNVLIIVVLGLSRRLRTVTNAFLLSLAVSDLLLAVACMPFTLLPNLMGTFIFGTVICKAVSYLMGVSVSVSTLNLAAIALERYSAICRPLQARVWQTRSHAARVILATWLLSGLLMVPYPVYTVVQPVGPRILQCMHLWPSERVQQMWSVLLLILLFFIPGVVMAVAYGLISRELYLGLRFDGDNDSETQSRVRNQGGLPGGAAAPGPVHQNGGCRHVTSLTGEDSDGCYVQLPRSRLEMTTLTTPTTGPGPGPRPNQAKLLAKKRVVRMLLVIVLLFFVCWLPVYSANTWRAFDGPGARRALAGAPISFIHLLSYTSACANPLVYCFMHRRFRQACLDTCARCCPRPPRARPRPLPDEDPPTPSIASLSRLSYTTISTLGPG

[2] = target: T2, Cholecystokinin receptor type A (Mus musculus, UniProt O08786); experiment: Concentration of compound required to inhibit binding of [125I]J-BH-CCK-8 radioligand to CCKA in mouse pancreatic membranes; type: cell membranes
T2 sequence (O08786 whole entry): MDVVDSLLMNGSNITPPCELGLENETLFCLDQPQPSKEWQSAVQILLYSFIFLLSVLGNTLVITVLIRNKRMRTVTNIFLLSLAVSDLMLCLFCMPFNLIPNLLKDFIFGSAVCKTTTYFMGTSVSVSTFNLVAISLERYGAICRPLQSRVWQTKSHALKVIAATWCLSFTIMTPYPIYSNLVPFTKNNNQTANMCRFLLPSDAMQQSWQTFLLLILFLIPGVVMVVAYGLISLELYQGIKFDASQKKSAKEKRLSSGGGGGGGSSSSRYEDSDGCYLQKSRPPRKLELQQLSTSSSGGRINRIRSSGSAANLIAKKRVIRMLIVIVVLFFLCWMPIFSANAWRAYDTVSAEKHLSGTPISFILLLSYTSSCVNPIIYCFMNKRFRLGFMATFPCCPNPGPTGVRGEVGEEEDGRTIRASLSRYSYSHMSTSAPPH

Compound	IC50 [1] [µM]	IC50 [2] [µM]
CN1C[C@H](C(=O)N[C@]2(C)O[C@@]3(O)[C@@H]4CCCN4C(=O)[C@H](Cc4ccccc4)N3C2=O)C[C@@H]2c3cccc4[nH]cc(c34)C[C@H]21 [DIHYDROERGOTAMINE]	23	> 80
CN1C[C@H](C(=O)N[C@]2(C)O[C@@]3(O)[C@@H]4CCCN4C(=O)[C@H](Cc4ccccc4)N3C2=O)C=C2c3cccc4[nH]cc(c34)C[C@H]21 [ERGOTAMINE]	17	34
C[C@H](NC(=O)C1C=C2c3cccc4[nH]cc(c34)CC2N(C)C1)C(=O)NCCc1ccccc1 (stereo not given in full)	> 80	12
CC(C)C[C@H]1C(=O)N2CCC[C@H]2[C@]2(O)O[C@](NC(=O)[C@@H]3C=C4c5cccc6[nH]cc(c56)C[C@H]4N(C)C3)(C(C)C)C(=O)N12 [ERGOCRYPTINE]	> 80	> 80
CC(C)C[C@H](NC(=O)[C@H](Cc1c[nH]c2ccccc12)NC(=O)OC(C)(C)C)C(=O)N[C@@H](CC(=O)O)C(=O)NCCc1ccccc1 (Boc-Trp-Leu-Asp-NHPhenethyl)	0.35	3.5
